Data set [1] deals with T1, human GIP receptor (Homo sapiens, UniProt P48546).
T1 construct: host or cells: HEK-293 cells, transient transfection (Lipofectamine 2000), cDNA in pCMV-Script vector
T1 sequence (P48546 22-466): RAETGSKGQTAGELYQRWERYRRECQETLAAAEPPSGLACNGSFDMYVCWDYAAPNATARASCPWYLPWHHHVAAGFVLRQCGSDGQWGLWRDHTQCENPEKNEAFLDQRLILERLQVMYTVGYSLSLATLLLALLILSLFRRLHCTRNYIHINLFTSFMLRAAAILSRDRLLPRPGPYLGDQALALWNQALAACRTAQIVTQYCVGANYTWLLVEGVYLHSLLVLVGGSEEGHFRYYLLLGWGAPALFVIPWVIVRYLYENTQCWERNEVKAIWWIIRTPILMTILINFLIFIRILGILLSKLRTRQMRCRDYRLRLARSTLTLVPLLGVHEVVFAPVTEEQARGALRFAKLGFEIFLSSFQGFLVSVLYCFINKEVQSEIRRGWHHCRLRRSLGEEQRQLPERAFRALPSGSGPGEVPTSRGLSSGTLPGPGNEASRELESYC
The experiment in a line: cAMP assay Alternative 1 (CisBio assay), GIPR antagonism. The data set is classed as cell-based. The following applies: for cAMP antagonism % inhib: % inhibition of Emax. On the procedure: HEK293 cells were cultured in 10% CO2 and 37° C. in Dulbecco's modified Eagle's medium supplemented with 10% fetal bovine serum, 2 mM glutamine, 180 units/ml penicillin, and 45 µg/ml streptomycin. Transient transfection with hGIPR for the CisBio assay from Table 2C was performed by using Lipofectamine 2000.
The in vitro functional activity of compounds towards human GIP receptor can also be determined in HEK-293 cells transiently expressing the receptor. On the day of the assay, cells were resuspended in HBSS buffer (Gibco, 14025-50) supplemented with […] (Gibco, 15630-106), 0.1% Pluronic F-68 (Gibco, 24040-032) and 0.1% casein (Sigma, C4765), and plated in 384-well plates at a density of 5000 cells/well. The GIP peptide analogues of the present disclosure were diluted in HBSS buffer supplemented with 20 mM HEPES, 0.1% pluronic, 0.1% casein and 500 uM IBMX. […] The resulting decrease in intracellular cAMP was quantitatively determined using the CisBio cAMP Dynamic 2 HTRF Assay Kit. The assay is based on a competition between native cAMP produced by cells and cAMP labeled with the dye d2 for binding to a cryptate labeled antibody. The specific signal (i.e. energy transfer signal) is inversely proportional to the concentration of cAMP in the sample.
The cAMP-d2 conjugate and the antibody anti-cAMP-Cryptate, both diluted in lysis buffer provided in the kit, were added to the cells according to the manufacturer's protocol. The resulting competitive assay was incubated for 60 minutes at room temperature, and the signal was detected by using a PerkinElmer Envision® instrument with excitation at 320 nm and emission at 665 nm and 620 nm. The HTRF ratio (emission at 665 nm/620 nm*10,000) is inversely proportional to the amount of cAMP present and is converted to nM cAMP per well using a cAMP standard curve. The dose-response curves were fitted using the non-linear regression analysis (four-logistic parameter equation) in GraphPad Prism, whereby pIC50 values were estimated. To test for agonistic properties at the GIP receptor, compounds were diluted and added to cells as described above and incubated for 30 min at 37° C. The resulting increase in intracellular cAMP was determined using the CisBio cAMP Dynamic 2 HTRF Assay Kit as described above.
The dose-response curves were fitted using the non-linear regression analysis (four-logistic parameter equation) in GraphPad Prism, whereby pIC50 values were estimated.

A short description of data set [2]: Physical stability: fibril formation in Thioflavin T (ThT) assay with agitation. The data set is classed as physicochemical. The following applies: 25° C., agitation. In a few lines:
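Peptides at 1, 5, 7.5 or 15 mg/ml in 50 mM sodium phosphate pH 7.4 or in water adjusted to pH 7.4 with NaOH, filtered 0.22 μm, with ThT added. Wells held a 3 mm silica bead under 300 rpm orbital agitation at 25° C. Emission at 486 nm tracked continuously; lag time = 10% of transition above baseline.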

Data set [3] is described as follows: Solubility by visual inspection of peptide solutions. The data set is classed as physicochemical. In a few lines:
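Peptides dissolved at 1, 5, 7.5 or 15 mg/ml in 50 mM sodium phosphate pH 7.4 or water adjusted to pH 7.4 with NaOH, with gentle mixing. Immediate solubility judged visually as a clear, colorless solution.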

Like-named read-outs stand apart in the source and are kept apart here. Starred links: 1 amine or outer side, 2 acyl side, 3 side chain; linkers in the order of their positions; H or OH if unused. Non-standard residues stand in square brackets, D forms with d. Residues, ends and D or L forms follow the SMILES beside them. Groups on a side chain read outwards from the residue. *: point of attachment. C18 diacid = O=C(O)CCCCCCCCCCCCCCCCC(=O)*; C16 diacid = O=C(O)CCCCCCCCCCCCCCC(=O)*; γGlu = O=C(O)[C@H](CCC(=O)[*:2])N[*:1]; Glutaryl = O=C(CCCC(=O)[*:2])[*:1]; Nle = CCCC[C@H](N)C(=O)O; AEEA = NCCOCCOCC(=O)O; Aib = CC(C)(N)C(=O)O Bounds are passed on as bounds.

Take `CC[C@H](C)[C@H](NC(=O)[C@H](CCCCN)NC(=O)[C@H](CCC(=O)O)NC(=O)[C@H](CC(C)C)NC(=O)C(C)(C)NC(=O)[C@@H](NC(=O)[C@H](CO)NC(=O)[C@H](Cc1ccc(O)cc1)NC(=O)[C@H](CCC(=O)O)NC(=O)[C@H](CO)NC(=O)[C@@H](NC(=O)[C@H](Cc1ccccc1)NC(=O)[C@@H](NC(=O)CNC(=O)[C@@H](N)CCC(=O)O)[C@@H](C)O)[C@@H](C)CC)[C@@H](C)CC)C(=O)N[C@@H](CCCCNC(=O)COCCOCCNC(=O)COCCOCCNC(=O)CC[C@H](NC(=O)CCCCCCCCCCCCCCCCC(=O)O)C(=O)O)C(=O)N[C@@H](CCC(N)=O)C(=O)N[C@@H](CCC(N)=O)C(=O)N[C@@H](CCC(=O)O)C(=O)N[C@@H](Cc1ccccc1)C(=O)N[C@H](C(=O)N[C@@H](CCC(=O)O)C(=O)N[C@@H](Cc1c[nH]c2ccccc12)C(=O)N[C@@H](CC(C)C)C(=O)N[C@@H](CC(C)C)C(=O)N[C@@H](C)C(=O)N[C@@H](CCC(N)=O)C(=O)N[C@@H](CCCCN)C(=O)N1CCC[C@H]1C(=O)N[C@@H](CO)C(=O)N[C@@H](CO)C(=O)NCC(=O)N[C@@H](C)C(=O)N1CCC[C@H]1C(=O)N1CCC[C@H]1C(=O)N1CCC[C@H]1C(=O)N[C@@H](CO)C(=O)O)C(C)C` [AT695] (H-EGTFISEYSI[Aib]LEKIK([AEEA-AEEA-γGlu-C18 diacid])QQEFVEWLLAQKPSSGAPPPS-OH; N-terminus assumed): the “cAMP antagonism % inhib” value in data set [1] (Table 2B) is 98%. The IC50 in data set [1] (Table 2B, HEK-293 cells transiently expressing hGIPR, agonist GIP1-42 at EC50, read-out: cAMP antagonism) came to 0.794 nM. The “Avr lag time (h)” value in data set [2] (1 mg/ml, TFA, Phosphate (7.4)) is on record as “fnd (Fnd = fibrils not detected within experiment time (96 hours) with agitation.)”; in data set [2] (5 mg/ml, Na, MilliQ (8)), “fnd (Fnd = fibrils not detected within experiment time (96 hours) with agitation.)”. Also, the Visual appearance result was “Clear” in data set [3] (1 mg/ml, TFA, Phosphate (7.4)) and “Clear” in data set [3] (5 mg/ml, Na, MilliQ (8)).
As for `CC[C@H](C)[C@H](NC(=O)[C@H](CCCCN)NC(=O)[C@H](CCC(=O)O)NC(=O)[C@H](CC(C)C)NC(=O)C(C)(C)NC(=O)[C@@H](NC(=O)[C@H](CO)NC(=O)[C@H](Cc1ccc(O)cc1)NC(=O)[C@H](CCC(=O)O)NC(=O)[C@H](CO)NC(=O)[C@@H](NC(=O)[C@H](Cc1ccccc1)NC(=O)[C@@H](NC(=O)CNC(=O)[C@@H](N)CCC(=O)O)[C@@H](C)O)[C@@H](C)CC)[C@@H](C)CC)C(=O)N[C@@H](CCCCNC(=O)CCCCCCCCCCCCCCC(=O)O)C(=O)N[C@@H](CCC(N)=O)C(=O)N[C@@H](CCC(N)=O)C(=O)N[C@@H](CCC(=O)O)C(=O)N[C@@H](Cc1ccccc1)C(=O)N[C@H](C(=O)N[C@@H](CCC(=O)O)C(=O)N[C@@H](Cc1c[nH]c2ccccc12)C(=O)N[C@@H](CC(C)C)C(=O)N[C@@H](CC(C)C)C(=O)N[C@@H](C)C(=O)N[C@@H](CCC(N)=O)C(=O)N[C@@H](CCCCN)C(=O)N1CCC[C@H]1C(=O)N[C@@H](CO)C(=O)N[C@@H](CO)C(=O)NCC(=O)N[C@@H](C)C(=O)N1CCC[C@H]1C(=O)N1CCC[C@H]1C(=O)N1CCC[C@H]1C(=O)N[C@@H](CO)C(=O)O)C(C)C` [AT673] (H-EGTFISEYSI[Aib]LEKIK(C16 diacid)QQEFVEWLLAQKPSSGAPPPS-OH; N-terminus assumed), the “cAMP antagonism % inhib” value in data set [1] (Table 2B) is recorded as 94%. Moreover, the “Avr lag time (h)” value in data set [2] (1 mg/ml, TFA, Phosphate (7.4)) is given as “fnd (Fnd = fibrils not detected within experiment time (96 hours) with agitation.)”; in data set [2] (5 mg/ml, Na, MilliQ (8)), “fnd (Fnd = fibrils not detected within experiment time (96 hours) with agitation.)”; in data set [2] (7.5 mg/ml, Na, MilliQ (8)), “fnd (Fnd = fibrils not detected within experiment time (96 hours) with agitation.)”; in data set [2] (15 mg/ml, Na, MilliQ (8)) it was “fnd (Fnd = fibrils not detected within experiment time (96 hours) with agitation.)”. For the same compound, the Visual appearance entry in data set [3] (1 mg/ml, TFA, Phosphate (7.4)) is reported as “Clear”; in data set [3] (5 mg/ml, Na, MilliQ (8)), “Clear”; in data set [3] (7.5 mg/ml, Na, MilliQ (8)), “Clear”; in data set [3] (15 mg/ml, Na, MilliQ (8)), “Clear”.
In the case of `CC[C@H](C)[C@H](NC(=O)[C@H](CO)NC(=O)[C@H](Cc1ccc(O)cc1)NC(=O)[C@H](CC(=O)O)NC(=O)[C@H](CO)NC(=O)[C@@H](NC(=O)[C@H](Cc1ccccc1)NC(=O)[C@@H](NC(=O)CNC(=O)CCCC(=O)O)[C@@H](C)O)[C@@H](C)CC)C(=O)N[C@@H](C)C(=O)N[C@@H](CCSC)C(=O)N[C@@H](CC(=O)O)C(=O)N[C@@H](CCCCN)C(=O)N[C@H](C(=O)N[C@@H](CCCCNC(=O)CCCCCCCCCCCCCCC(=O)O)C(=O)N[C@@H](CCC(N)=O)C(=O)N[C@@H](CCC(N)=O)C(=O)N[C@@H](CC(=O)O)C(=O)N[C@@H](Cc1ccccc1)C(=O)N[C@H](C(=O)N[C@@H](CC(N)=O)C(=O)N[C@@H](Cc1c[nH]c2ccccc12)C(=O)N[C@@H](CC(C)C)C(=O)N[C@@H](CC(C)C)C(=O)N[C@@H](C)C(=O)N[C@@H](CCC(N)=O)C(=O)N[C@@H](CCCCN)C(=O)N1CCC[C@H]1C(=O)N[C@@H](CO)C(=O)N[C@@H](CO)C(=O)NCC(=O)N[C@@H](C)C(=O)N1CCC[C@H]1C(=O)N1CCC[C@H]1C(=O)N1CCC[C@H]1C(=O)N[C@@H](CO)C(=O)O)C(C)C)[C@@H](C)CC` [AT677] (Glutaryl-GTFISDYSIAMDKIK(C16 diacid)QQDFVNWLLAQKPSSGAPPPS-OH), the IC50 in data set [1] stood at 0.447 nM. In addition, in data set [1] (Table 2B), the “cAMP antagonism % inhib” value came to 93%. The “Avr lag time” value was <24 h in data set [2] (1 mg/ml, Na, MilliQ (8)) and 16.5 ± 2.3 h in data set [2] (1 mg/ml, TFA, Phosphate (7.4)). For the same compound, the Visual appearance result in data set [3] (1 mg/ml, TFA, Phosphate (7.4)) is listed as “Clear”.
Turning to `CCCC[C@H](NC(=O)C(C)(C)NC(=O)[C@@H](NC(=O)[C@H](CO)NC(=O)[C@H](Cc1ccc(O)cc1)NC(=O)[C@H](CC(=O)O)NC(=O)[C@H](CO)NC(=O)[C@@H](NC(=O)[C@H](Cc1ccccc1)NC(=O)[C@@H](NC(=O)CNC(=O)[C@@H](N)CCC(=O)O)[C@@H](C)O)[C@@H](C)CC)[C@@H](C)CC)C(=O)N[C@@H](CC(=O)O)C(=O)N[C@@H](CCCCN)C(=O)N[C@H](C(=O)N[C@@H](CCCCNC(=O)COCCOCCNC(=O)COCCOCCNC(=O)CC[C@H](NC(=O)CCCCCCCCCCCCCCCCC(=O)O)C(=O)O)C(=O)N[C@@H](CCC(N)=O)C(=O)N[C@@H](CCC(N)=O)C(=O)N[C@@H](CC(=O)O)C(=O)N[C@@H](Cc1ccccc1)C(=O)N[C@H](C(=O)N[C@@H](CCC(=O)O)C(=O)N[C@@H](Cc1c[nH]c2ccccc12)C(=O)N[C@@H](CC(C)C)C(=O)N[C@@H](CC(C)C)C(=O)N[C@@H](C)C(=O)N[C@@H](CCC(N)=O)C(=O)N[C@@H](CCCCN)C(=O)N1CCC[C@H]1C(=O)N[C@@H](CO)C(=O)N[C@@H](CO)C(=O)NCC(=O)N[C@@H](C)C(=O)N1CCC[C@H]1C(=O)N1CCC[C@H]1C(=O)N1CCC[C@H]1C(=O)N[C@@H](CO)C(=O)O)C(C)C)[C@@H](C)CC` [AT686] (H-EGTFISDYSI[Aib][Nle]DKIK([AEEA-AEEA-γGlu-C18 diacid])QQDFVEWLLAQKPSSGAPPPS-OH; N-terminus assumed), the “cAMP antagonism % inhib” value in data set [1] (Table 2B) was found to be 82%.
